{FITC} = fluorescein isothiocyanate through the Aminolink 2 six-carbon amine linker
Columns and labels:
[1] = target: T1, BamHI restriction endonuclease (Bacillus amyloliquefaciens, UniProt P23940); assay: BamHI cleavage of FITC-labeled DNA substrate, continuous fluorometric (dequenching) assay; assay type: biochemical, Bacillus amyloliquefaciens H; details: 10 units BamHI in 100 μl, 37° C.
T1 construct: purchased New England Biolab
Procedure: Spectroscopic Measurements: Absorbance and absorption spectra were measured with a Hewlett-Packard 8450A diode array spectrophotometer. Using the extinction coefficient of fluorescein (E-78,000) at 492 nm, the concentration and total moles of fluorescein were calculated (Chen and Scott, supra). The amount of fluorescein conjugated to the oligonucleotide was estimated by subtracting the moles of fluorescein multiplied by the extinction coefficient of FITC at 260 nm, 23,000 M^−1 cm^−1, from the total absorbance at 260 nm. The remaining AU260 should be proportional to the DNA content. Steady-state fluorescence spectra and intensity were recorded with an SLM 8000 spectrophotofluorometer with 10-mm Glan-Thompson polarizers. Fluorescence emission measurements were performed under “magic angle” emission conditions (Spencer and Weber, J. Chem. Phys. 52:1654–1663 (1970)). A cuvette with a 3-mm excitation path length was used for all experiments. The absorbance of all fluorescence samples was less than 0.1 at the wavelength of excitation to avoid inner-filter effects. The temperatures of the samples were regulated with a Neslab Instruments, Inc., T.E.Q. temperature controller and a PBC4 bath cooler.
The extent of cleavage by BamHI was calculated from the fluorescence data utilizing the following equation:
[formula] where [DNA]c is the concentration of cleaved DNA, Ft is the fluorescence intensity at time, t, F∞is the fluorescence intensity at the plateau, F0 is the initial fluorescence intensity, and [DNA]i is the initial concentration of DNA. Results and Discussion
(§1) Cleavage reactions were also examined as a function of substrate concentration with a fixed concentration of BamHI (10 units in 100 μl total reaction volume). The reactions were initiated by the addition of BamHI and stopped by the addition of 25 mM EDTA 11 minutes after the enzyme was added. The reaction mixtures were subjected to native 20% polyacrylamide gel analysis. Since the DNA substrate was labeled with FITC, a photograph of the gel was taken under ultraviolet illumination (using a Kodak green filter) without staining the gel with ethidium bromide. Therefore, only the fluorescent-labeled DNA fragments were visualized, resulting in two DNA bands: a substrate band and a product band (5′-FITC-NH-CCCCG). A direct comparison was made between the data obtained from the fluorometric assay and the photographic data obtained from gel electrophoretic analysis. The kinetics of BamHI cleavage reactions as a function of DNA substrate concentration measured by fluorometric analysis are illustrated in FIG. 7A. […] Similarly, the reaction at 0.36 μM substrate reached near completion as shown by both the fluorescence (curve B, FIG. 7A) and the gel data (lane B, FIG. 7B). Higher DNA substrate concentrations, 0.72 μM (curve C, FIG. 7A) and 1.08 μM (curve D, FIG. 7A), yielded incomplete cleavage reactions (observed by changes in fluorescence intensity). […] It appears that the initial velocity of curve D is also slower than that of curve C. […] As expected, the PAGE data (FIG. 7B) show higher product formation in lane C compared to that of lane D.
The fractions of uncleaved and cleaved DNA were calculated from the fluorescence data utilizing equation 1 (see Methods). Fractions of uncleaved and cleaved DNA were also estimated from a photograph taken from the polyacrylamide gel. […]

[2] = target: T1, BamHI restriction endonuclease; assay: BamHI cleavage of FITC-labeled DNA substrate, native 20% PAGE with densitometry; assay type: biochemical, Bacillus amyloliquefaciens H; details: 10 units BamHI in 100 μl, 37° C.
Procedure: as §1
The fractions of uncleaved and cleaved DNA were calculated from the fluorescence data utilizing equation 1 (see Methods). Fractions of uncleaved and cleaved DNA were also estimated from a photograph taken from the polyacrylamide gel. Utilizing a Hewlett Packard ScanJet IIp and the densitometry program Scan Analysis 68000 (BioSoft), the peaks obtained from each of the bands (substrate and products) were integrated and ratioed to obtain the relative amount of cleavage.

HIV-IN = target: T2, HIV-IN (Human immunodeficiency virus type 1 group M subtype B, UniProt P12497); assay: HIV-IN cleavage of fluorogenic substrate monitored by FRET; assay type: biochemical
T2 construct: The wild-type HIV-integrase protein was obtained from Dr. Robert Craigie; made in house; host or cells: Escherichia coli
Procedure: FIGS. 10A and 10B: FIG. 10A is a graph depicting steady-state emission spectra of a fluorogenic substrate in the presence and absence of HIV-IN. Curve A depicts the emission spectrum of 4 pmol of fluorogenic substrate in 400 μl reaction buffer containing 25 mM HEPES, pH 7.5, 50 mM NaCl, 2 mM DTT, and 5% glycerol at 37° C. Curve B depicts the emission spectrum of the same substrate digested with 40 pmol HIV-IN for 1 hour. Curve C depicts the difference emission spectrum of curve B and curve A. Emission spectra were recorded with an excitation wavelength at 460 nm.
FIGS. 11A, 11B, and 11C: FIG. 11A is a graph depicting the kinetics of an HIV-IN cleavage reaction of a fluorogenic substrate monitored by FRET. The DNA cleavage reaction was initiated by the addition of HIV-IN to a preincubated reaction mixture containing 4 pmol of substrate. The conditions for the reactions are the same as in FIG. 10. Changes in fluorescence intensity were monitored with excitation and emission wavelengths of 460 and 510 nm, respectively. Mn^2+ quenched the fluorescence intensity of the substrate in the absence of the enzyme; thus, the kinetic data presented in this figure were intensity normalized according to the intensity ratio of the substrate in the presence of Mg^2+ and in the presence of Mn^2+. FIG. 11B depicts the kinetics of an HIV-IN cleavage reaction of a fluorogenic substrate monitored by denaturing polyacrylamide gel electrophoresis (PAGE). The time course of a ^32P-5′-labeled fluorescent substrate was determined by radiographic assays. […] Reaction mixtures were analyzed by denaturing gel electrophoresis. Results were quantitated by utilizing a Hewlet-Packard ScanJet IIp and the densitometry program Scan Analysis 68020 (BioSoft). […]
Spectroscopic Measurements: Absorbance and absorption spectra were measured with a Hewlett-Packard 8450A diode array spectrophotometer. Steady-state fluorescence spectra and intensity were recorded with an SLM 8000 spectrophotofluorometer with 10-mm Glan-Thompson polarizers. […]

[3] = Curve A, [DNA] 0.21 μM, stopped after 11 minutes
[4] = Curve B, [DNA] 0.36 μM, stopped after 11 minutes
[5] = Curve C, [DNA] 0.72 μM, stopped after 11 minutes
[6] = Curve D, [DNA] 1.08 μM, stopped after 11 minutes
[7] = Curve E, [DNA] 0.18 μM, in the presence of 25 mM EDTA

T1 sequence (P23940 whole entry): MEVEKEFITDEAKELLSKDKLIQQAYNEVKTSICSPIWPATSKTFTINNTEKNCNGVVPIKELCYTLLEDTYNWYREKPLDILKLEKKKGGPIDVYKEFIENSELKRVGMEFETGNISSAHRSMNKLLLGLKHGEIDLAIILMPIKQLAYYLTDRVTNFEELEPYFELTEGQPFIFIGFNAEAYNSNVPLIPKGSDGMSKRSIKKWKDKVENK

5′-FITC-NH-CCCCGGATCCACCC-3′ (SEQ ID NO:1) annealed to 3′-GGGGCCTAGGTGGG-5′ (SEQ ID NO:2) (antisense GGGTGGATCCGGGG; sense: DNA, 5' {FITC}, backbone and methylation of C not given here; antisense: DNA, backbone and methylation of C not given here; further chemistry not fully specified) [FITC-labeled DNA Substrates, 14-mer FITC-labeled oligonucleotide with the BamHI restriction site, annealed to its unlabeled complementary strand]
% Cleavage Fluorescence Assay [1, 3]: 100%
% Cleavage Fluorescence Assay [1, 4]: 91.9%
% Cleavage Fluorescence Assay [1, 5]: 59.5%
% Cleavage Fluorescence Assay [1, 6]: 32.2%
% Cleavage Fluorescence Assay [1, 7]: 0%
% Cleavage PAGE [2, 3]: 100%
% Cleavage PAGE [2, 4]: 92.3%
% Cleavage PAGE [2, 5]: 60.6%
% Cleavage PAGE [2, 6]: 30.1%
% Cleavage PAGE [2, 7]: 0%

B1: F-D1/T1: 5′-TGAGTACCCGTGTGGAAAATCTCTAGCAGGGNCTATGGCGTCCCCTCTG (SEQ ID NO:3); E-D2: 3′-… (SEQ ID NO:4) (nucleic acid)
sense: TGAGTACCCGTGTGGAAAATCTCTAGCAGGGNCTATGGCGTCCCCTCTG
antisense: NACTGCTAGAGATTTTCCACACGGGTACTCA
modifications: FITC and EITC labels, chemistry not fully specified
notes: FITC-labeled 49-mer hybrid strand of HIV-1 U5 end annealed to EITC-labeled partial complementary strand
estimated efficiency of the cleavage reaction by HIV-IN (HIV-IN; 4 pmol substrate, 40 pmol HIV-IN, 1 hour, 37° C., in the presence of Mg2+, relative to DNase I digestion): 35%
changes in donor fluorescence with Mg2+ relative to Mn2+ (HIV-IN; 7.5 mM Mg2+ vs 7.5 mM Mn2+, end of a 60 minute reaction, intensity normalized): approximately 3 times
cleavage of substrate by integrase (increase in fluorescence intensity) (HIV-IN; in the presence of 20 mM EDTA, 37° C.): not cleaved
